Results reported in patent US10035801B2, “Pyrazolo compounds and uses thereof” (CONSTELLATION PHARMACEUTICALS, INC., priority 2013, dated 2018).

biological target: T1, KDM5A (Homo sapiens, UniProt P29375); assay: KDM5 enzyme assay, KDM5A HTRF (Example 463); format: biochemical; settings: not given
T1 construct: Full length KDM5A enzyme was expressed and purified inhouse; made in house
T1 sequence (P29375 whole entry): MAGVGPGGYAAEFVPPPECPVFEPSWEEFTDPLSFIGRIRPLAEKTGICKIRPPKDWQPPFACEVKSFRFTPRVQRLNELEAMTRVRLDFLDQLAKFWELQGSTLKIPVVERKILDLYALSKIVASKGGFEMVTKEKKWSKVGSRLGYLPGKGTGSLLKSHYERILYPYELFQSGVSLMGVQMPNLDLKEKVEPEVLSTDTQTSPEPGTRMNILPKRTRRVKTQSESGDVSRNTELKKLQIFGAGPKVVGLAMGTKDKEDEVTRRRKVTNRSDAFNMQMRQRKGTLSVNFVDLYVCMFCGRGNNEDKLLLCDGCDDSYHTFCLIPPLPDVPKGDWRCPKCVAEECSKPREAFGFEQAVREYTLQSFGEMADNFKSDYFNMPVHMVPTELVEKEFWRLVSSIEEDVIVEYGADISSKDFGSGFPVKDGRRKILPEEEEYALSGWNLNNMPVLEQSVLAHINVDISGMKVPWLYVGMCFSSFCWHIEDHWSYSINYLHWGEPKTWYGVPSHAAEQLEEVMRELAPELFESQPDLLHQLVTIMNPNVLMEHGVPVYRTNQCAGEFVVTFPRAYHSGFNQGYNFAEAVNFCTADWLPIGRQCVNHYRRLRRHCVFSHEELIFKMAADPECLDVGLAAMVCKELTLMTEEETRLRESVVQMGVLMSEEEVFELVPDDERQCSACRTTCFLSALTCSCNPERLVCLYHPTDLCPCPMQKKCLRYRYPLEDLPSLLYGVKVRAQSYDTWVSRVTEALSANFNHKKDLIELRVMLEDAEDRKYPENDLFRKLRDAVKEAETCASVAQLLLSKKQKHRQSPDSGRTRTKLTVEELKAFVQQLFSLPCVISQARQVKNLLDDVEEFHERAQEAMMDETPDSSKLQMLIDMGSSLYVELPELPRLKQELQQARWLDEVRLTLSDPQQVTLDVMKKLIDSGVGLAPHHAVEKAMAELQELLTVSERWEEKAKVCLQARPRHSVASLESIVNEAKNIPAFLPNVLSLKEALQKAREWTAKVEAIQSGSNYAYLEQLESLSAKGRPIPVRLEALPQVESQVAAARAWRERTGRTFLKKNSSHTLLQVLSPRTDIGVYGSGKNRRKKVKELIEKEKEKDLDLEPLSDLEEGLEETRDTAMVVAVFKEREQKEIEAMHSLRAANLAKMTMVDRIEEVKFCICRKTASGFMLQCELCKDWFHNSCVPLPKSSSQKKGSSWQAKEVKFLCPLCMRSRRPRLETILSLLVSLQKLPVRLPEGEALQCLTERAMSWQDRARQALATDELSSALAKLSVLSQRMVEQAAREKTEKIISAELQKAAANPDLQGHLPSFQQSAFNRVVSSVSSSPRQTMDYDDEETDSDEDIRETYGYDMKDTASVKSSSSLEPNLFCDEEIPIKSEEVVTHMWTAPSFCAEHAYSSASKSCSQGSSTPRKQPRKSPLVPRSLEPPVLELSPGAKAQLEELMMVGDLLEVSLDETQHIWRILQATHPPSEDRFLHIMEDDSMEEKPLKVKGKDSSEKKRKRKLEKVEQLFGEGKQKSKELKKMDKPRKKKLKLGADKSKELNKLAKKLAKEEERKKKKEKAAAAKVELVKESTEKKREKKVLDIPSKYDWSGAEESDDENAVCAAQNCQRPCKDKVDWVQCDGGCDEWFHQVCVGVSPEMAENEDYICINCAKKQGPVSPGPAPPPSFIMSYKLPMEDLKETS

| Compound | IC50 [nM] |
| --- | --- |
| CC(C)c1c(-c2ccc(Cl)cc2)[nH]c2c(C#N)cnn2c1=O [Example 341] | 21 |

same assay, conditions: compounds of Examples 1-432; read-out: Example 463 Assay KDM5A HTRF IC50

| IC50 [nM] | Compound |
| --- | --- |
| 52 | CC(C)c1c(-c2ccc(F)c(C(=O)NC3CCCCC3)c2)[nH]c2c(C#N)cnn2c1=O [Example 304] |
| 47 | CC(C)c1c(-c2ccc(N3CCOCC3)cc2)[nH]c2c(C#N)cnn2c1=O [Example 305] |
| 200 | CC(C)c1c(-c2ccc(N3CCN(C(=O)OC(C)(C)C)CC3)cc2)[nH]c2c(C#N)cnn2c1=O [Example 306] |
| 25 | Cc1cc(Cl)cc(-c2[nH]c3c(C#N)cnn3c(=O)c2C(C)C)c1 [Example 307] |
| 17 | CC(C)c1c(-c2cccc(S(C)(=O)=O)c2)[nH]c2c(C#N)cnn2c1=O [Example 308] |
| 37 | CC(C)c1c(-c2ccc(NS(C)(=O)=O)cc2)[nH]c2c(C#N)cnn2c1=O [Example 309] |
| 19 | CC(C)c1c(-c2ccc(CN3CCOCC3)cc2)[nH]c2c(C#N)cnn2c1=O [Example 310] |
| 28 | CC(C)c1c(-c2cccc(N3CCOCC3)c2)[nH]c2c(C#N)cnn2c1=O [Example 311] |
| 28 | CC(C)c1c(-c2ccc(Oc3ccccc3)cc2)[nH]c2c(C#N)cnn2c1=O [Example 312] |
| 18 | C=CC(=O)NCCn1cc(-c2[nH]c3c(C#N)cnn3c(=O)c2C(C)C)cn1 [Example 313] |
| 5.2 | CC(C)c1c(-c2cnn(CCN)c2)[nH]c2c(C#N)cnn2c1=O [Example 314] |
| 24 | Cc1ccc(-c2[nH]c3c(C#N)cnn3c(=O)c2C(C)C)cc1C1CC1 [Example 315] |
| 34 | CCOc1cccc(-c2[nH]c3c(C#N)cnn3c(=O)c2C(C)C)c1 [Example 316] |
| 25 | CC(C)c1c(-c2cccc(CO)c2)[nH]c2c(C#N)cnn2c1=O [Example 317] |
| 21 | CC(C)c1c(-c2cnn(CCNC(=O)OC(C)(C)C)c2)[nH]c2c(C#N)cnn2c1=O [Example 318] |
| 46 | CC(C)c1c(-c2cccc(OCCc3ccccc3)c2)[nH]c2c(C#N)cnn2c1=O [Example 319] |
| 20 | CC(C)c1c(C2=CCNCC2)[nH]c2c(C#N)cnn2c1=O [Example 320] |
| 23 | C=CS(=O)(=O)NCCn1cc(-c2[nH]c3c(C#N)cnn3c(=O)c2C(C)C)cn1 [Example 321] |
| 10 | CC(C)c1c(-c2ccc(Nc3ccccc3)cc2)[nH]c2c(C#N)cnn2c1=O [Example 322] |
| 31 | Cc1n[nH]cc1-c1[nH]c2c(C#N)cnn2c(=O)c1C(C)C [Example 323] |

| IC50 [nM] | Compound |
| --- | --- |
| 26 | CC(C)c1c(-c2ccc(OCc3ccccc3)cc2)[nH]c2c(C#N)cnn2c1=O [Example 324] |
| 19 | CC(C)c1c(-c2cc(F)cc(F)c2)[nH]c2c(C#N)cnn2c1=O [Example 325] |
| 14 | CC(C)c1c(-c2cc(F)cc(C(F)(F)F)c2)[nH]c2c(C#N)cnn2c1=O [Example 326] |
| 48 | CCS(=O)(=O)c1cccc(-c2[nH]c3c(C#N)cnn3c(=O)c2C(C)C)c1 [Example 327] |
| 30 | CC(C)c1c(-c2cccc(OC(F)(F)F)c2)[nH]c2c(C#N)cnn2c1=O [Example 328] |
| 11 | CC(C)c1c(-c2cnn(Cc3cncs3)c2)[nH]c2c(C#N)cnn2c1=O [Example 329] |
| 23 | Cc1ccc(-c2[nH]c3c(C#N)cnn3c(=O)c2C(C)C)cc1 [Example 330] |
| 27 | CC(C)c1c(-c2ccc(C3CC3)cc2)[nH]c2c(C#N)cnn2c1=O [Example 331] |
| 20 | CCS(=O)(=O)c1ccc(-c2[nH]c3c(C#N)cnn3c(=O)c2C(C)C)cc1 [Example 332] |
| 12 | C=Cc1cccc(Cn2cc(-c3[nH]c4c(C#N)cnn4c(=O)c3C(C)C)cn2)n1 [Example 333] |
| 25 | CC(C)c1c(-c2ccc(OCc3ccccc3)nc2)[nH]c2c(C#N)cnn2c1=O [Example 334] |
| 60 | CC(C)c1c(C2=CCN(C(=O)OC(C)(C)C)C2)[nH]c2c(C#N)cnn2c1=O [Example 335] |
| 32 | CC(C)c1c(-c2cnn(C(CO)c3ccccc3)c2)[nH]c2c(C#N)cnn2c1=O (centres unmarked) [Example 336] |
| 25 | CC(C)c1c(-c2cnn(C(CC#N)c3ccccc3)c2)[nH]c2c(C#N)cnn2c1=O (centres unmarked) [Example 337] |
| 34 | CC(C)c1c(-c2ccc(C3CC3)nc2)[nH]c2c(C#N)cnn2c1=O [Example 338] |
| 33 | COc1cc(-c2[nH]c3c(C#N)cnn3c(=O)c2C(C)C)ccc1C#N [Example 339] |
| 31 | COc1ccc(-c2[nH]c3c(C#N)cnn3c(=O)c2C(C)C)cc1C(F)(F)F [Example 340] |
| 9 | CC(C)c1c(-c2cnn(Cc3ccc(F)c(F)c3)c2)[nH]c2c(C#N)cnn2c1=O [Example 342] |
| 36 | Cc1ccc(-c2[nH]c3c(C#N)cnn3c(=O)c2C(C)C)cc1C(F)(F)F [Example 343] |
| 93 | CC(C)c1c(-c2ccc(C(=O)N3CCCC3)cc2)[nH]c2c(C#N)cnn2c1=O [Example 344] |

biological target: T2, GASC1 (Homo sapiens, UniProt Q9H3R0); assay: GASC1 demethylation assay on H3K9Me3 peptide (RapidFire HT-MS); format: biochemical; settings: read-out: GASC1 Inhibition
T2 construct: 6×His tagged recombinant GASC1 (N 350aa) was purified from E. Coli BL21(DE3); 6xHis; made in house; host or cells: E. coli BL21(DE3)
T2 sequence (Q9H3R0 1-350 limits assumed): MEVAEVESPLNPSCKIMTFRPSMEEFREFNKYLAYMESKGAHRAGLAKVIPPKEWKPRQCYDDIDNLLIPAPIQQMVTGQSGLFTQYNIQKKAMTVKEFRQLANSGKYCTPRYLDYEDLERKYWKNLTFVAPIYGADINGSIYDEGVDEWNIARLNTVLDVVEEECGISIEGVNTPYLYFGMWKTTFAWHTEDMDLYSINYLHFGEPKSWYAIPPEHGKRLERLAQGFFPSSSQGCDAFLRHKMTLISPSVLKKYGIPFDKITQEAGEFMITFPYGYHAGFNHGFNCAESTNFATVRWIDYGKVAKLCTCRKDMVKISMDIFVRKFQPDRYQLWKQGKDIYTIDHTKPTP
Method: 6×His tagged recombinant GASC1 (N 350aa) was purified from E. Coli BL21(DE3) to near homogeneity. The demethylation reaction buffer contained 50 mM TrisCl pH 7.5, 0.01% Triton X-100, 5% glycerol, 1 mM ascorbate (Cat# A4034, Sigma Aldrich), 5 μM α-ketoglutarate (# K2010, Sigma Aldrich) and 20 μM Fe2(NH4)2(SO4)2 (Cat# F1543, Sigma Aldrich). In 25 μL demethylation reaction system, 400 nM recombinant GASC1 and 20 μM H3K9me3 peptide (1-21 aa) were incubated with compounds for 10 minutes, and then α-ketoglutarate and Fe2(NH4)2(SO4)2 were added to initiate the reaction. All of the reactions were incubated for 45 minutes at room temperature, and then 25 μl of 1 N HCl was added to quench the reactions. After termination, plates were sealed and frozen at −80° C. and shipped on dry ice to BioTrove Inc. (Woburn, Mass.) for analysis.
All the reactions were read by RapidFire™ HT-MS platform developed in BioTrove Inc, and the method has been described in detail previously (Assay and Drug Development Technologies, 2004; 2(4): 373-381). Briefly, at BioTrove, plates were thawed and immediately analyzed using RapidFire™ system coupled to a Sciex API4000 triple quadrapole mass spectrometer. The samples were delivered directly from the plate to a clean-up cartridge (BioTrove column A) to remove nonvolatile assay components with 0.1% formic acid in a 3-sec wash cycle. The peptide substrate and demethylated product were coeluted to the mass spectrometer with 80% acetonitrile, 0.1% formic acid. Both the substrate and product signals were read at their +5 charge species, and the conversion from substrate to product is assessed by [H3K9me2 Read]/[H3K9me2 Read+H3K9me3 Read].

| IC50 [nM] | Compound |
| --- | --- |
| ≥ 50000 | CCOC(=O)Cc1c(C)[nH]c2c(C#N)c(C)nn2c1=O [Compound I-1] |
| ≥ 50000 | CCOC(=O)Cc1c(C)[nH]c2c(C#N)cnn2c1=O [Compound I-2] |
| 1000 to 10000 | N#Cc1cnn2c(=O)c3c([nH]c12)CCC3 [Compound I-3] |
| 1000 to 10000 | CCc1c(C)[nH]c2c(C#N)c(C)nn2c1=O [Compound I-5] |
| ≥ 50000 | Cc1[nH]c2c(C#N)cnn2c(=O)c1Cc1ccccc1 [Compound I-6] |
| 10000 to 50000 | Cc1nn2c(=O)c3c([nH]c2c1C#N)CCCC3 [Compound I-12] |
| ≥ 50000 | CCc1nn2c(=O)c3c([nH]c2c1C#N)CCCC3 [Compound I-13] |
| ≥ 50000 | Cn1c2c(c(=O)n3ncc(C#N)c13)CCCC2 [Compound I-14] |
| 1000 to 10000 | Cc1nn2c(=O)c(C(C)C)c(C)[nH]c2c1C#N [Compound I-15] |
| 1000 to 10000 | CCCc1c(C)[nH]c2c(C#N)c(C)nn2c1=O [Compound I-16] |
| ≤ 1000 | CCCc1c(C)[nH]c2c(C#N)cnn2c1=O [Compound I-17] |
| ≥ 50000 | N#Cc1cnn2c(=O)c3c(n(Cc4ccccc4)c12)CCCC3 [Compound I-18] |
| ≥ 50000 | N#Cc1cnn2c(=O)c3c(n(-c4ccccc4)c12)CCCC3 [Compound I-19] |
| 1000 to 10000 | Cc1c(C(C)C)c(=O)n2ncc(C#N)c2n1-c1ccccc1 [Compound I-20] |
| 1000 to 10000 | CCc1c(CO)[nH]c2c(C#N)c(C)nn2c1=O [Compound I-22] |
| 1000 to 10000 | CCc1c(COC)[nH]c2c(C#N)c(C)nn2c1=O [Compound I-24] |
| 1000 to 10000 | CCOC(=O)c1[nH]c2c(C#N)c(C)nn2c(=O)c1CC [Compound I-26] |

| IC50 [nM] | Compound |
| --- | --- |
| ≥ 50000 | COCCOc1c2c(nc3c(C#N)cnn13)CCCC2 [Compound I-27] |
| ≥ 50000 | COCCc1c(C)[nH]c2c(C#N)cnn2c1=O [Compound I-28] |
| 1000 to 10000 | CCCc1c(COC)[nH]c2c(C#N)cnn2c1=O [Compound I-31] |
| 1000 to 10000 | CCc1c(CCCOC)[nH]c2c(C#N)cnn2c1=O [Compound I-32] |
| 1000 to 10000 | CCCc1c(CO)[nH]c2c(C#N)cnn2c1=O [Compound I-33] |
| ≤ 1000 | C=CCc1c(C)[nH]c2c(C#N)cnn2c1=O [Compound I-34] |
| 1000 to 10000 | CCc1c(C(C)O)[nH]c2c(C#N)cnn2c1=O (centres unmarked) [Compound I-35] |
| ≥ 50000 | CCc1c(C)n(CCN(C)C)c2c(C#N)cnn2c1=O [Compound I-36] |
| ≥ 50000 | CCc1c2n(c3c(C#N)cnn3c1=O)CCC2 [Compound I-37] |
| ≤ 1000 | CCc1c(CCCO)[nH]c2c(C#N)cnn2c1=O [Compound I-38] |
| 1000 to 10000 | Cc1[nH]c2c(C#N)cnn2c(=O)c1CC(C)C [Compound I-39] |
| 1000 to 10000 | Cc1[nH]c2c(C#N)cnn2c(=O)c1CCO [Compound I-40] |
| ≤ 1000 | CCc1c(C(F)(F)F)[nH]c2c(C#N)cnn2c1=O [Compound I-41] |
| ≤ 1000 | CCc1c(-c2ccoc2)[nH]c2c(C#N)cnn2c1=O [Compound I-42] |
| 1000 to 10000 | CCCc1c(C(=O)OCC)[nH]c2c(C#N)cnn2c1=O [Compound I-43] |
| ≤ 1000 | CCc1c(Cc2ccccc2)[nH]c2c(C#N)cnn2c1=O [Compound I-44] |
